The record followed here is paper PMC3752901 (Clinical cancer research : an official journal of the …, 2013).

In one data set the target is T1, mOct1 (Mus musculus, UniProt O08966).
T1 sequence (O08966 1-556): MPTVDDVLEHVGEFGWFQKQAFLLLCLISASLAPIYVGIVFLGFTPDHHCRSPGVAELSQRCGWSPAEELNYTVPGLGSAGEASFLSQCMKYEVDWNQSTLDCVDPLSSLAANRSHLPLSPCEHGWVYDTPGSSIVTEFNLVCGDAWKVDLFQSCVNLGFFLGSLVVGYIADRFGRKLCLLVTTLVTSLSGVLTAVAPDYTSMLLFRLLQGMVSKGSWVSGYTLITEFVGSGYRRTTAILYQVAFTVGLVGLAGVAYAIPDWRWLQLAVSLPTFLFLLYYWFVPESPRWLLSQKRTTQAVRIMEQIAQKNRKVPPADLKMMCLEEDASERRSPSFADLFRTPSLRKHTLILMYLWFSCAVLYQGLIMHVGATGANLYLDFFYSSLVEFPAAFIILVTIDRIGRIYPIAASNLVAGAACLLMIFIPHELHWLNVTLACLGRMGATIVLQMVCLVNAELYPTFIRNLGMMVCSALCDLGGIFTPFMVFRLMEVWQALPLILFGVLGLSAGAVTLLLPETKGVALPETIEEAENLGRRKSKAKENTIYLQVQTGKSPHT
The data set can be described thus: Uptake in HEK293 cells expressing mOct1. It counts as in vitro ADME. The note with it: HEK293, 1 μM.

A short description of a further data set: Blood cell partitioning. The data set is classed as in vitro ADME, mouse.
The nature of data set [1]: Plasma pharmacokinetics in wildtype and Abcc4. The note with it: for clearance / Cmax / Tmax: male, C57BL/6, mouse, plasma, 10 mg/kg; for clearance: CL.
For another data set, the target named is T2, mOct2 (Mus musculus, UniProt O70577).
T2 sequence (O70577 1-553): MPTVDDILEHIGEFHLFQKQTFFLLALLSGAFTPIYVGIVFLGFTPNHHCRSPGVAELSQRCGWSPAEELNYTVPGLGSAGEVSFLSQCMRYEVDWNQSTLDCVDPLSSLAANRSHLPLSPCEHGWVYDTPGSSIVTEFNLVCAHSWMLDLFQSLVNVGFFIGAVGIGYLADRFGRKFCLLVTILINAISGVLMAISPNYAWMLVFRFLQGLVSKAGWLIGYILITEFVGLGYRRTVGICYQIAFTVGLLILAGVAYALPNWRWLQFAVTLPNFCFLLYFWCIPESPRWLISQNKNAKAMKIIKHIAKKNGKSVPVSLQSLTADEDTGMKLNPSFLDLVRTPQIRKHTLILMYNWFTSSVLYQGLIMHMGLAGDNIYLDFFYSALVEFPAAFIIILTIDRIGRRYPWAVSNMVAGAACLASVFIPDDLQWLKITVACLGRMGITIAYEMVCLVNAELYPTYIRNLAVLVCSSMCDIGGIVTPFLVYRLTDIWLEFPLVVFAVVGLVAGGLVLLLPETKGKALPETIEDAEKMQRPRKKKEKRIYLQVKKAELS
The data set can be described thus: Uptake in HEK293 cells expressing mOct2. It counts as in vitro ADME. Conditions: HEK293, 1 μM.

The next data set concerns the target T3, mouse Abcc4 (Mus musculus, UniProt E9Q236).
T3 sequence (E9Q236 1-1325): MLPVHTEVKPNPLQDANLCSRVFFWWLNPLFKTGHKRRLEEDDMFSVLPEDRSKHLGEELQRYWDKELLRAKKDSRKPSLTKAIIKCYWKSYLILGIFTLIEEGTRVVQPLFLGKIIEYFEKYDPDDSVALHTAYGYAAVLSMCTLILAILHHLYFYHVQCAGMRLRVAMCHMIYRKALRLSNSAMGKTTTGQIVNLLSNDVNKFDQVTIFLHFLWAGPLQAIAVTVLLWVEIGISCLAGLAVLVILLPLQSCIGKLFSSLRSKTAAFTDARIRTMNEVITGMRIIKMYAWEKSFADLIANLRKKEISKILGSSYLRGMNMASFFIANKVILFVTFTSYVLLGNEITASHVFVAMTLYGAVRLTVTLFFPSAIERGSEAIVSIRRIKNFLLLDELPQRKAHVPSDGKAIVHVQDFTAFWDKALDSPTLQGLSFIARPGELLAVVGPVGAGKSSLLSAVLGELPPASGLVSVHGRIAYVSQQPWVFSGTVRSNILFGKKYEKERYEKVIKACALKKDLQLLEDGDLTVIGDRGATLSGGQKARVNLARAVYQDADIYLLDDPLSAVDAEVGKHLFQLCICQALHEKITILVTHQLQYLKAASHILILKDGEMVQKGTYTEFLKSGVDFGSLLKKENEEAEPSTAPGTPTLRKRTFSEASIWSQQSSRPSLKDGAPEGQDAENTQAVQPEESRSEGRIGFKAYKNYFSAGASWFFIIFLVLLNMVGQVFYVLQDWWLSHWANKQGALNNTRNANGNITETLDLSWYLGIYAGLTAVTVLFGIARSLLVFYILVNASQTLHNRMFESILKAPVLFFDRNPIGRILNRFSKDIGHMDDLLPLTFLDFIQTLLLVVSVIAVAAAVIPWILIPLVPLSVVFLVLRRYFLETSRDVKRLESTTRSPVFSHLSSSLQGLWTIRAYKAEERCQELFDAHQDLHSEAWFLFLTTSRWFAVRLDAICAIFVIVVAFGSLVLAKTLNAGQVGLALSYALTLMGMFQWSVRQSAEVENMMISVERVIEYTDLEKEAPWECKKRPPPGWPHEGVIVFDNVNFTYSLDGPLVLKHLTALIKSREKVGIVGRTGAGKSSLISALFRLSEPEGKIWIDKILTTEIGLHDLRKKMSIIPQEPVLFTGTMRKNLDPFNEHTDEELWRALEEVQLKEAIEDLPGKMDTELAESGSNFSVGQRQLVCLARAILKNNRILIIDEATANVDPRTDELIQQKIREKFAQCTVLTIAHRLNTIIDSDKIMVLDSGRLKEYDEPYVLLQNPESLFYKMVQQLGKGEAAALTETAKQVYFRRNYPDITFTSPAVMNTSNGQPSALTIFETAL
The data set can be described thus: Accumulation/efflux in Saos-2 cells transfected with Abcc4. The note with it: 100 μM, 4-h incubation.

In the next data set the target is ABCC3 (MRP3) (Homo sapiens, UniProt O15438). The data set is described as follows: Uptake into inside-out Sf9 vesicles expressing ABCC3. The data set is classed as in vitro ADME. The note with it: same experimental conditions as ABCC4 vesicles.
Chain of ABCC3 (MRP3) (O15438 whole entry): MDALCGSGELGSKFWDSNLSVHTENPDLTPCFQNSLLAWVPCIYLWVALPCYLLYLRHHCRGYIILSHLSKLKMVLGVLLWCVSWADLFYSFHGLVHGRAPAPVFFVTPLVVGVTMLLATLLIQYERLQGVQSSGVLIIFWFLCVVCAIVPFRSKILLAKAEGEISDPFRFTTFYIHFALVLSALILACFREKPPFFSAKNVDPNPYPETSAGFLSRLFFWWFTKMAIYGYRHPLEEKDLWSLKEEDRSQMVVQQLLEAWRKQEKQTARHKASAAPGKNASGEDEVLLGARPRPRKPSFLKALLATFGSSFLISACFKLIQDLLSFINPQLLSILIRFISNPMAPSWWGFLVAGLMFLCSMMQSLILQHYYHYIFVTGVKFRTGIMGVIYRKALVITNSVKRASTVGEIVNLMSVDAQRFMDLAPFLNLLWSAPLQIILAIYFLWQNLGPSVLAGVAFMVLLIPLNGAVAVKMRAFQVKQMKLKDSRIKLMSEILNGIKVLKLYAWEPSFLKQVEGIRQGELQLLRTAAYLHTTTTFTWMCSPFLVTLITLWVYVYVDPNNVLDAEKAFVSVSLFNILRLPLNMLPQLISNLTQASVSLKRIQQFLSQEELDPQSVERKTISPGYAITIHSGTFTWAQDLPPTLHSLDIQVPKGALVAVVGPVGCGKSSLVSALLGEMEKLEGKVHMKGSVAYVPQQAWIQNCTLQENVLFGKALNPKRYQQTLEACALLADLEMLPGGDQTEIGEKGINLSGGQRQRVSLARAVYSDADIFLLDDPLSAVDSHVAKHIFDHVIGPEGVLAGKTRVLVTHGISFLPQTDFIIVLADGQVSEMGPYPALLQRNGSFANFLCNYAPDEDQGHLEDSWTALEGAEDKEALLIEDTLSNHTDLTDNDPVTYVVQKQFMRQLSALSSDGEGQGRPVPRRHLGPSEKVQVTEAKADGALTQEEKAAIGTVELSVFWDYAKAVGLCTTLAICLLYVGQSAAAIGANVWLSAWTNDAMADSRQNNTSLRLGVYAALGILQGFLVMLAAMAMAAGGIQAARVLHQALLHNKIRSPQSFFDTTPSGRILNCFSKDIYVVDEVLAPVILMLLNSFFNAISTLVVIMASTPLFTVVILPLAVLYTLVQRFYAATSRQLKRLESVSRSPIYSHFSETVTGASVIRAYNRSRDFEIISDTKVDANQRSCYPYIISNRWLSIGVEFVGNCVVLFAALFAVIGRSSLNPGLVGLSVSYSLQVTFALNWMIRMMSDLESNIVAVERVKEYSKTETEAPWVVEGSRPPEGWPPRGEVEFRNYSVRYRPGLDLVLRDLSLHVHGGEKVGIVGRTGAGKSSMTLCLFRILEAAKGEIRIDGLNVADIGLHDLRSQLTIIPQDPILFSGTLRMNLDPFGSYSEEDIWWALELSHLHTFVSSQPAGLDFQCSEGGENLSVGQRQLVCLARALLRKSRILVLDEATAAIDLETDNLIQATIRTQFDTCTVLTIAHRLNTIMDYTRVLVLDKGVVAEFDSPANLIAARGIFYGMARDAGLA
The nature of data set [2]: Binding to serum proteins. It counts as in vitro ADME. The note with it: male, C57BL/6, mouse.
Where [3] appears, read: iv, i.v. 10 mg/kg, Abcc4(−/−) mice.
[4] abbreviates: iv, i.v. 10 mg/kg, wildtype mice.
Setting [5] is: po, oral 10 mg/kg, Abcc4(−/−) mice.
Where [6] appears, read: po, oral 10 mg/kg, wildtype mice.

The structures appear in SMILES notation.

Regarding `Cc1nc(Nc2ncc(C(=O)Nc3c(C)cccc3Cl)s2)cc(N2CCN(CCO)CC2)n1` [dasatinib, Dasatinib], the “intracellular accumulation on overexpression of Oct1” value at mOct1 is recorded as “did not alter intracellular accumulation”. Also, the Blood cell partitioning in “Blood cell partitioning” (Abcc4(−/−) mice) came out at 36.1 ± 2.86%; in “Blood cell partitioning” (wildtype mice) it was 33.0 ± 1.04%. The figures for the clearance in data set [1] (setting [3]) and in data set [1] (setting [4]) were 41.9 mL/min/kg and 49.6 mL/min/kg, respectively. The Cmax (in general, the maximum level reached in the sampled fluid or tissue) in data set [1] (setting [3]) is 3460 ng/mL; in data set [1] (setting [4]) it was 3390 ng/mL; in data set [1] (setting [5]), 48.1 ± 16.5 ng/mL; in data set [1] (setting [6]), 182 ± 93.8 ng/mL. Moreover, the Tmax (commonly the time from dosing to the highest level) came to 2.19 ± 1.06 h in data set [1] (setting [5]) and 0.306 ± 0.223 h in data set [1] (setting [6]). The Ka amounted to 2.49 ± 0.92 h⁻¹ in data set [1] (oral 10 mg/kg, Abcc4(−/−) mice) and 34.3 ± 6.85 h⁻¹ in data set [1] (oral 10 mg/kg, wildtype mice). Besides, on mOct2, the “intracellular accumulation on overexpression of Oct2” value is listed as “did not alter intracellular accumulation”. In addition, the “transport by mouse Abcc4 (accumulation in Saos-2 cells overexpressing Abcc4 compared to control cells)” value on mouse Abcc4 is recorded as “significantly reduced accumulation”. The “accumulation in ABCC3 vesicles compared to control” value on ABCC3 (MRP3) was 1.3 fold. The fraction unbound (usually the share of the substance not bound to proteins or other matrix) in data set [2] (Abcc4(−/−) mice) turned out to be 0.0812 ± 0.00493; in data set [2] (wildtype mice) it was 0.087 ± 0.0044.
